Reference: publication PMC7587356, “High-Throughput Screening for Inhibitors of the SARS-CoV-2 Protease Using a FRET-Biosensor” (Molecules, 2020)
Where a name gives a salt, the structure may show the parent alone. Read-outs that look alike come from different tables or passages of the source.

Target: SARS-CoV-2 3CLpro (Severe acute respiratory syndrome coronavirus 2, UniProt P0DTD1)
Assay: biochemical
Format: biochemical
Design: Replicate_1 / Replicate_2 / mean / mean (LOPAC_screen_w_protease): unit not given here
Details: for inhibition at 5 µM: 4 h; for mean (LOPAC screen with protease) / Replicate_1 (LOPAC screen with protease) / Replicate_2 (LOPAC screen with protease): primary screen at 5 µM
[1] = LOPAC1280 primary screen with protease, 5 µM compound, mean of the two replicates
[2] = LOPAC1280 primary screen with protease, 5 µM compound, replicate 1
[3] = LOPAC1280 primary screen with protease, 5 µM compound, replicate 2
[4] = sheet LOPAC_screen_w_protease, primary screen with protease, 5 µM, mean of two replicates
[5] = sheet LOPAC_screen_w_protease, primary screen with protease, 5 µM, replicate 1
[6] = sheet LOPAC_screen_w_protease, primary screen with protease, 5 µM, replicate 2
[7] = LOPAC1280 primary screen with protease, 5 µM compound, replicate 1, read-out: Replicate_1 (LOPAC_screen_w_protease)
[8] = LOPAC1280 primary screen with protease, 5 µM compound, replicate 2, read-out: Replicate_2 (LOPAC_screen_w_protease)
[9] = LOPAC1280 primary screen with protease, 5 µM compound, mean of two replicates
[10] = sheet LOPAC_screen_w_protease, primary screen of LOPAC1280 at 5 µM with protease, mean of the two replicates, read-out: mean
[11] = sheet LOPAC_screen_w_protease, primary screen of LOPAC1280 at 5 µM with protease, replicate 1, read-out: Replicate_1
[12] = sheet LOPAC_screen_w_protease, primary screen of LOPAC1280 at 5 µM with protease, replicate 2, read-out: Replicate_2
[13] = read-out: Replicate_1 (LOPAC_screen_w_protease)
[14] = read-out: Replicate_2 (LOPAC_screen_w_protease)
[15] = sheet LOPAC_screen_w_protease, primary screen with protease, mean of two replicates, read-out: mean
[16] = sheet LOPAC_screen_w_protease, primary screen with protease, replicate 1, read-out: Replicate_1
[17] = sheet LOPAC_screen_w_protease, primary screen with protease, replicate 2, read-out: Replicate_2
[18] = sheet LOPAC_screen_w_protease, mean of two replicates
[19] = sheet LOPAC_screen_w_protease, replicate 1
[20] = sheet LOPAC_screen_w_protease, replicate 2
[21] = sheet LOPAC_screen_w_protease, primary screen with protease, compound at 5 µM, mean of two replicates
[22] = sheet LOPAC_screen_w_protease, primary screen with protease, compound at 5 µM, replicate 1
[23] = sheet LOPAC_screen_w_protease, primary screen with protease, compound at 5 µM, replicate 2

## CN(C(=O)Cc1ccc(Cl)c(Cl)c1)C(CN1CCCC1)c1cccc(OCC(=O)O)c1.Cl (centres unmarked) [ICI 204,448 hydrochloride]
[1]
  mean (LOPAC_screen_w_protease): 1.925
[2]
  Replicate_1 (LOPAC_screen_w_protease): 3.897
[3]
  Replicate_2 (LOPAC_screen_w_protease): -0.04714

## Br.C[N+](C)(C)CCCCCNCC12CC3CC(CC(C3)C1)C2.[Br-] [IEM-1460]
[4]
  mean: 0.3994
[5]
  Replicate_1: 0.5263
[6]
  Replicate_2: 0.2724

## CCCC(=O)NCCc1c2n(c3ccc(OC)cc13)Cc1ccccc1-2 [IIK7]
Sheet LOPAC_screen_w_protease, primary screen of LOPAC1280 at 5 µM with protease, mean of the two replicates
  mean: 3.902
Sheet LOPAC_screen_w_protease, primary screen of LOPAC1280 at 5 µM with protease, replicate 1
  Replicate_1: 5.727
Sheet LOPAC_screen_w_protease, primary screen of LOPAC1280 at 5 µM with protease, replicate 2
  Replicate_2: 2.078

## Cl.Fc1ccc(CN(C2=NCCN2)c2c(Cl)cccc2Cl)cc1 [IMID-4F hydrochloride]
[4]
  mean: -0.6347
[5]
  Replicate_1: -0.8698
[6]
  Replicate_2: -0.3997

## CC(C)C(=O)c1c(C(C)C)nn2ccccc12 [Ibudilast]
[7]
  inhibition at 5 µM: 1.64%
[8]
  inhibition at 5 µM: 1.76%
[9]
  mean (LOPAC_screen_w_protease): 1.697

## O=C1NC(c2cccc([N+](=O)[O-])c2)=CCN1c1ccccc1O [Icilin]
[10]
  inhibition at 5 µM: 3.88%
[11]
  inhibition at 5 µM: 4.52%
[12]
  inhibition at 5 µM: 3.25%

## c1ccc2c(c1)OCC(C1=NCCN1)O2 (centres unmarked) [Idazoxan hydrochloride]
[13]
  inhibition at 5 µM: 1.08%
[14]
  inhibition at 5 µM: 2.66%

## O=C1CCC(c2ccc(-n3ccnc3)cc2)=NN1 [Imazodan]
Sheet LOPAC_screen_w_protease, primary screen with protease, 5 µM, mean of two replicates, read-out: mean
  inhibition at 5 µM: -0.683%
Sheet LOPAC_screen_w_protease, primary screen with protease, 5 µM, replicate 1, read-out: Replicate_1
  inhibition at 5 µM: 0.89%
Sheet LOPAC_screen_w_protease, primary screen with protease, 5 µM, replicate 2, read-out: Replicate_2
  inhibition at 5 µM: -2.26%

## N=C(N)SCCc1cnc[nH]1 [Imetit dihydrobromide]
[15]
  inhibition at 5 µM: 2.25%
[16]
  inhibition at 5 µM: 1.12%
[17]
  inhibition at 5 µM: 3.38%

## Cl.O=C(O)Cc1c[nH]cn1 [Imidazole-4-acetic acid hydrochloride]
Sheet LOPAC_screen_w_protease, LOPAC1280 primary screen at 5 µM, with protease, mean of the two replicates
  mean: 0.8241
Sheet LOPAC_screen_w_protease, LOPAC1280 primary screen at 5 µM, with protease, replicate 1
  Replicate_1: 2.255
Sheet LOPAC_screen_w_protease, LOPAC1280 primary screen at 5 µM, with protease, replicate 2
  Replicate_2: -0.6064

## CCn1ccnc1CC1COc2ccccc2O1 (centres unmarked) [Imiloxan hydrochloride]
Sheet LOPAC_screen_w_protease, primary screen with protease, compound at 5 µM, mean of two replicates, read-out: mean
  inhibition at 5 µM: 3.1%
Sheet LOPAC_screen_w_protease, primary screen with protease, compound at 5 µM, replicate 1, read-out: Replicate_1
  inhibition at 5 µM: 4.11%
Sheet LOPAC_screen_w_protease, primary screen with protease, compound at 5 µM, replicate 2, read-out: Replicate_2
  inhibition at 5 µM: 2.09%

## CN[C@@H]1C[C@@H](c2ccc(Cl)c(Cl)c2)c2ccccc21 [Indatraline hydrochloride]
[7]
  inhibition at 5 µM: 1.51%
[8]
  inhibition at 5 µM: 2.53%
[1]
  mean (LOPAC_screen_w_protease): 2.022

## O=C1Nc2ccccc2/C1=C1/Nc2ccccc2/C1=N\O [Indirubin-3'-oxime]
[9]
  mean (LOPAC_screen_w_protease): 1.392
[2]
  Replicate_1 (LOPAC_screen_w_protease): 2.012
[3]
  Replicate_2 (LOPAC_screen_w_protease): 0.7725

## COc1ccc2c(c1)c(CC(=O)N1CCOCC1)c(C)n2C(=O)c1ccc(Cl)cc1 [Indomethacin morpholinylamide]
[15]
  inhibition at 5 µM: 2.27%
[16]
  inhibition at 5 µM: 2.02%
[17]
  inhibition at 5 µM: 2.53%

## COc1ccc2c(c1)c(CC(=O)O)c(C)n2C(=O)c1ccc(Cl)cc1 [Indomethacin]
  Replicate_1: 3.273
  Replicate_2: 1.395
  mean: 2.334

## NC(=O)CI [Iodoacetamide]
[18]
  mean (LOPAC screen with protease): 17.6073
[19]
  Replicate_1 (LOPAC screen with protease): 16.5057
[20]
  Replicate_2 (LOPAC screen with protease): 18.7088

## CC(C)NC(C)Cc1ccc(I)cc1 (centres unmarked) [Iofetamine hydrochloride]
read-out: Replicate_1
  inhibition at 5 µM: 3.54%
read-out: Replicate_2
  inhibition at 5 µM: 3.79%
read-out: mean
  inhibition at 5 µM: 3.67%

## CC(C)[N+]1(C)[C@@H]2CC[C@H]1C[C@@H](OC(=O)C(CO)c1ccccc1)C2 (some centres unmarked) [Ipratropium bromide]
[7]
  inhibition at 5 µM: 1.02%
[8]
  inhibition at 5 µM: 1.99%
[9]
  mean (LOPAC_screen_w_protease): 1.504

## CC(C)NNC(=O)c1ccncc1.O=P(O)(O)O [Iproniazid phosphate]
[21]
  mean: 2.591
[22]
  Replicate_1: 1.295
[23]
  Replicate_2: 3.887

## O=C(O)C1=CCNCC1 [Isoguvacine hydrochloride]
[7]
  inhibition at 5 µM: 2.64%
[8]
  inhibition at 5 µM: 1.29%
[1]
  mean (LOPAC_screen_w_protease): 1.964

## O=C(O)C1CCNCC1 [Isonipecotic acid]
[7]
  inhibition at 5 µM: 4.55%
[8]
  inhibition at 5 µM: -0.611%
[1]
  mean (LOPAC_screen_w_protease): 1.97

## CCC(NC(C)C)C(O)c1ccc(O)c(O)c1.CS(=O)(=O)O (centres unmarked) [Isotharine mesylate]
[18]
  mean (LOPAC screen with protease): 8.447
[19]
  Replicate_1 (LOPAC screen with protease): 8.4794
[20]
  Replicate_2 (LOPAC screen with protease): 8.416

## Nc1nc2[nH]c(=O)cnc2c(=O)[nH]1 [Isoxanthopterin]
[15]
  inhibition at 5 µM: 2.42%
[16]
  inhibition at 5 µM: 3.73%
[17]
  inhibition at 5 µM: 1.11%

## CC[C@H](C)[C@H]1O[C@]2(CC[C@@H]1C)C[C@@H]1C[C@@H](C/C=C(\C)[C@@H](O[C@H]3C[C@H](OC)[C@@H](O[C@H]4C[C@H](OC)[C@@H](O)[C@H](C)O4)[C@H](C)O3)[C@@H](C)/C=C/C=C3\CO[C@@H]4[C@H](O)C(C)=C[C@@H](C(=O)O1)[C@]34O)O2 [Ivermectin]
[21]
  mean: 2.889
[22]
  Replicate_1: 2.826
[23]
  Replicate_2: 2.952

## CCCn1c(C)c(C(=O)c2cccc3ccccc23)c2ccccc21 [JWH-015]
[9]
  mean (LOPAC_screen_w_protease): 1.386
[2]
  Replicate_1 (LOPAC_screen_w_protease): 1.748
[3]
  Replicate_2 (LOPAC_screen_w_protease): 1.024

## CCCC(=O)NCCc1c2n(c3ccc(OC)cc13)CCCc1ccccc1-2 [K 185]
Sheet LOPAC_screen_w_protease, primary screen with protease, mean of two replicates
  mean: 2.196
Sheet LOPAC_screen_w_protease, primary screen with protease, replicate 1
  Replicate_1: 2.886
Sheet LOPAC_screen_w_protease, primary screen with protease, replicate 2
  Replicate_2: 1.507

## C=C(C)[C@H]1CN[C@H](C(=O)O)[C@H]1CC(=O)O [Kainic acid]
  mean (LOPAC_screen_w_protease): 1.974
[13]
  inhibition at 5 µM: 1.88%
[14]
  inhibition at 5 µM: 2.07%

## CCN1C[C@]2(C)CC[C@H](O)[C@]34C1[C@@H](C[C@H]23)[C@@]1(O)C[C@H](OC)[C@H]2C[C@@H]4[C@@H]1[C@H]2O [Karakoline]
  mean (LOPAC_screen_w_protease): 1.99
[13]
  inhibition at 5 µM: 1.52%
[14]
  inhibition at 5 µM: 2.46%

## O=C1Cc2c([nH]c3ccc(Br)cc23)-c2ccccc2N1 [Kenpaullone]
read-out: Replicate_1
  inhibition at 5 µM: 1.52%
read-out: Replicate_2
  inhibition at 5 µM: 3.46%
read-out: mean
  inhibition at 5 µM: 2.49%

## O=C(c1ccc(F)cc1)C1CCN(CCn2c(=O)[nH]c3ccccc3c2=O)CC1 [Ketanserin tartrate]
Sheet LOPAC_screen_w_protease, LOPAC1280 primary screen at 5 µM, with protease, mean of two replicates, read-out: mean
  inhibition at 5 µM: -1.02%
Sheet LOPAC_screen_w_protease, LOPAC1280 primary screen at 5 µM, with protease, replicate 1, read-out: Replicate_1
  inhibition at 5 µM: 1.01%
Sheet LOPAC_screen_w_protease, LOPAC1280 primary screen at 5 µM, with protease, replicate 2, read-out: Replicate_2
  inhibition at 5 µM: -3.04%

## NC(CO)(CO)CO.O=C(c1ccccc1)c1ccc2n1CCC2C(=O)O (centres unmarked) [Ketorolac tris salt]
[9]
  mean (LOPAC_screen_w_protease): 1.7087
[2]
  Replicate_1 (LOPAC_screen_w_protease): 1.974
[3]
  Replicate_2 (LOPAC_screen_w_protease): 1.443

## CN1CCC(=C2c3ccccc3CC(=O)c3sccc32)CC1 [Ketotifen fumarate]
[10]
  inhibition at 5 µM: 3.16%
[11]
  inhibition at 5 µM: 4.97%
[12]
  inhibition at 5 µM: 1.34%

## O=C(O)c1cc(=O)c2ccccc2[nH]1 [Kynurenic acid]
[7]
  inhibition at 5 µM: 3.13%
[8]
  inhibition at 5 µM: 0.793%
[1]
  mean (LOPAC_screen_w_protease): 1.961

## N[C@@H](CCCC(=O)O)C(=O)O [L-2-aminoadipic acid]
Sheet LOPAC_screen_w_protease, LOPAC1280 at 5 µM, mean of two replicates
  mean: 0.8841
Sheet LOPAC_screen_w_protease, LOPAC1280 at 5 µM, replicate 1
  Replicate_1: 1.166
Sheet LOPAC_screen_w_protease, LOPAC1280 at 5 µM, replicate 2
  Replicate_2: 0.6027

## N[C@@H](Cc1ccc(O)c(O)c1)C(=O)O [L-3,4-Dihydroxyphenylalanine]
Sheet LOPAC_screen_w_protease, LOPAC1280 primary screen with protease, 5 µM compound, mean of the two replicates
  mean: 4.21
Sheet LOPAC_screen_w_protease, LOPAC1280 primary screen with protease, 5 µM compound, replicate 1
  Replicate_1: 5.679
Sheet LOPAC_screen_w_protease, LOPAC1280 primary screen with protease, 5 µM compound, replicate 2
  Replicate_2: 2.742

## CCCCOC(=O)NS(=O)(=O)c1sc(CC(C)C)cc1-c1ccc(Cn2c(CC)nc3c(C)cc(C)nc32)cc1 [L-162,313]
[1]
  mean (LOPAC_screen_w_protease): 1.8394
[2]
  Replicate_1 (LOPAC_screen_w_protease): 2.383
[3]
  Replicate_2 (LOPAC_screen_w_protease): 1.2958
